Where “and” joins values, the source holds several entries; their conditions need not be identical. Equal values may be shown once. Entries after “also recorded” stand apart in the source; their conditions may differ. Read-outs that look alike come from different tables or passages of the source.
Legend:
recombinant human MAO-A = molecular target: T1, recombinant human MAO-A (Homo sapiens, UniProt P21397); test: MAO inhibition, kynuramine oxidation to 4-hydroxyquinoline; format: biochemical
T1 sequence (P21397 1-527): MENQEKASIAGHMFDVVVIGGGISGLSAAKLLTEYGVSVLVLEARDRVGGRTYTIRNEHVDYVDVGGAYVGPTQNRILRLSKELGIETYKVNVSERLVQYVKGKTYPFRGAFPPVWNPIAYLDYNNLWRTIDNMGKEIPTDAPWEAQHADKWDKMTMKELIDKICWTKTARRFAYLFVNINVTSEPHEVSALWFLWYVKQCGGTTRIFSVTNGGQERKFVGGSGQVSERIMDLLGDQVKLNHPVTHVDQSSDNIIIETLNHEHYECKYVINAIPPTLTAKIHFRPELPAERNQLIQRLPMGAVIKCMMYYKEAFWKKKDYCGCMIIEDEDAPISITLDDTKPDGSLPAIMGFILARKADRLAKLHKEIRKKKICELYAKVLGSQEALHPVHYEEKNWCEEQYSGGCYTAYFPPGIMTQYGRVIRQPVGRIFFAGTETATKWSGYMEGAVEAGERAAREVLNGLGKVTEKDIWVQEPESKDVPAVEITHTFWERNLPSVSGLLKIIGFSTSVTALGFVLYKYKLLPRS
Method: A total of 99 µL of substrate working solution was added into 1.1 mL incubation tubes and then 1 µL of the test compound/control working solution or DMSO (vehicle control) was added, mixed well, and pre-incubated at 37 °C for 5 min. MAO-A (0.005 mg/mL) and MAO-B (0.02 mg/mL) were pre-incubated in the working solution at 37 °C for 5 min. A total of 100 µL of pre-incubated MAO-A or MAO-B working solution was added to incubation tubes to start the reaction, mixed well, and incubated at 37 °C for 15 min. […] All samples were centrifuged at 4000 rpm at 4 °C for 15 min, then 100 µL supernatant with 100 µL of water was transferred for LC-MS/MS analysis.
(§1) Enzyme activity (%) = PAR with compound/PAR vehicle × 100.
The oxidation of kynuramine to 4-hydroxyquinoline generated was the in vitro marker reaction of MAO-A and MAO-B enzymes.

OATP1B3 = molecular target: T2, OATP1B3 (Homo sapiens, UniProt Q9NPD5); test: Uptake transport inhibition in HEK293-OATP1B3 cells
T2 sequence (Q9NPD5 1-702): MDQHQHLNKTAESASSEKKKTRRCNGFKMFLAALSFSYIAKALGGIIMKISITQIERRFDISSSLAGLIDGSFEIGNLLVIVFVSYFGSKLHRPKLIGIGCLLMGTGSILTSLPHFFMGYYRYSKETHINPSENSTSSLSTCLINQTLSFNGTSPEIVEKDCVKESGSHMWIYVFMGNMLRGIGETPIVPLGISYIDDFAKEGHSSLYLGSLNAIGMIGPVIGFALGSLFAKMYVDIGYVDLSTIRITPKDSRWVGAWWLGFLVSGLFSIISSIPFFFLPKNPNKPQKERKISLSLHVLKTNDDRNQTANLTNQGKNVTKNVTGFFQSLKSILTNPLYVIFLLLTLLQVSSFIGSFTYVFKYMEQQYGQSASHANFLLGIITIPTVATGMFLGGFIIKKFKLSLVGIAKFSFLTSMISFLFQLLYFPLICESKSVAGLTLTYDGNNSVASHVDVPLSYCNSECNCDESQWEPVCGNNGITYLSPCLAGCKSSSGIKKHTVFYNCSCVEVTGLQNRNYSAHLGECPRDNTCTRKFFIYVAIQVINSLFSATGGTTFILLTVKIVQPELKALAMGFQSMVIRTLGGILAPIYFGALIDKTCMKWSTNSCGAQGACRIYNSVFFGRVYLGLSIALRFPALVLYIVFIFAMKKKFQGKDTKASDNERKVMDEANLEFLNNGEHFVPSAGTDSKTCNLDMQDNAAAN
Method: HEK293-OATP1B1 and OATP1B3 cells were diluted to 1 × 10^6 cells/mL with DMEM supplemented with 1% non-essential amino acid (NEAA), 10% fetal bovine serum (FBS), 1% PS solution (100 U/mL penicillin-G and 100 μg/mL streptomycin), and seeded on a 96-well BioCoat™ poly-d-lysine plate at a density of 1 × 10^6 cells/mL. […] Once the cells were anchored on the plate, the cell culture was replaced with DMEM containing 10% FBS and 1% PS solution (100 U/mL penicillin-G and 100 μg/mL streptomycin solution) and cultured one day for the uptake and inhibition studies. The cell culture medium was removed from the 96-well plate, then rinsed twice with 0.1 mL/well of pre-warmed transport buffer. The transporter cells containing pre-incubation solution were pre-incubated at 37 °C for 30 min. Then the pre-incubation solution was removed and replaced with 0.1 mL/well of dosing solution containing a substrate, respectively (blank transporter buffer containing a substrate, transport buffer containing a substrate and PC, and transport buffer containing a substrate and salidroside). Then, the transporter cells were incubated at 37 °C for 2 min. After incubation, all solutions in the cells were discarded and rinsed with 0.10 mL/well of ice-cold transport buffer (4 °C) three times. […] All samples were shaken and centrifuged at 4000 rpm at 4 °C for 15 min and the supernatant was removed for future analysis by LC-MS/MS.
as §1

CYP2C9 = CYP2C9 (Homo sapiens, UniProt P11712); settings: microsomes
CYP2C9, sequence (P11712 whole entry): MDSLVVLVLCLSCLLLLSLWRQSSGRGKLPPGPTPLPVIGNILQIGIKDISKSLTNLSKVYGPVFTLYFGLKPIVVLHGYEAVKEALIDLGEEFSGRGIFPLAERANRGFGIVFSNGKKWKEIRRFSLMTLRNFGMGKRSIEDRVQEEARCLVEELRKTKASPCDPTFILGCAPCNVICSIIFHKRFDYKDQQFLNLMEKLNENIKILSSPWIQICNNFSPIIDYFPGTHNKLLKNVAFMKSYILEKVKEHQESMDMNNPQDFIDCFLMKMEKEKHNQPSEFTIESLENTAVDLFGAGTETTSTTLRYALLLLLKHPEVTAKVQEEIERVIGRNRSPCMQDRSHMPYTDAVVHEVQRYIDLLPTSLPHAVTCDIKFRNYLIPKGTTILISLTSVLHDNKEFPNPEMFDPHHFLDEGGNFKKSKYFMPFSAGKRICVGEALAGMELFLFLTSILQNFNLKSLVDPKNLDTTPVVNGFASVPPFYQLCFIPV

CYP2C19 = CYP2C19 (Homo sapiens, UniProt P33261); settings: microsomes
CYP2C19, sequence (P33261 whole entry): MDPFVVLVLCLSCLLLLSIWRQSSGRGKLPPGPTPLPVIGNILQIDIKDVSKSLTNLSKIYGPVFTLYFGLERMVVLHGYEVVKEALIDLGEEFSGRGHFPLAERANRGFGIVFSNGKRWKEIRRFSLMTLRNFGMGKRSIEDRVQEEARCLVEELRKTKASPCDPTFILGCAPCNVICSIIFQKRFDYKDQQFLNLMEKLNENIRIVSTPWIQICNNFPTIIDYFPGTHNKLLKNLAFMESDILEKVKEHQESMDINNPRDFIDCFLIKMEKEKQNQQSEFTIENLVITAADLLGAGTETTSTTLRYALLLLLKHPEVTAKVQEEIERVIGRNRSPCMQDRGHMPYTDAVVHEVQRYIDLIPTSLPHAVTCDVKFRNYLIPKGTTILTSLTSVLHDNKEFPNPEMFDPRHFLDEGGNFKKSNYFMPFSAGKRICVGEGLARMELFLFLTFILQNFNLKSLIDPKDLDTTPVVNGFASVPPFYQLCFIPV

CYP3A4 = settings: for % of Positive Control / Mean Fold Induction: human, 48 h
[1] = design: method as in PMID 29796228; settings: rat, cited from earlier work
MAO-B = test system: MAO-B; design: method as in PMID 19168123; settings: isolated compound at 10 µM; cited from earlier work
[2] = design: method as in PMID 22139684, PMID 22525439; settings: rats, two studies; cited from earlier work
in vitro = settings: human, plasma, pH 7.4

## OC[C@H]1O[C@@H](OCCc2ccc(O)cc2)[C@H](O)[C@@H](O)[C@@H]1O [Salidroside]
Recombinant human MAO-A
  IC50: > 50 µM
Recombinant human MAO-A; at 50 µM, read-out: maximum % inhibition of MAO-A
  inhibition at 50 µM: 13.3%
OATP1B3
  IC50: > 100 µM
OATP1B3; 100 µM
  mean control activities (% of control activity) / inhibition of OATP1B3: unchanged; also recorded: no inhibition
CYP2C9
  IC50 Shift: no shift
CYP2C19
  IC50 Shift: no shift
CYP3A4; CYP3A4, Lot# SNP, 0.1 µM, N = 3
  Mean Enzyme Activity: 1.82 pmol/10^6 cells/min
CYP3A4; 0.1 µM
  % of Positive Control: −15%
  Mean Fold Induction: 2.07 fold
CYP3A4; 1 µM
  % of Positive Control: −26%
  Mean Fold Induction: 1.55 fold
CYP3A4; 10 µM
  % of Positive Control: −14%
  Mean Fold Induction: 2.13 fold
[1]; 12 mg/kg IV
  clearance: 21 mL/min/kg
[1]; 12 mg/kg oral
  oral bioavailability (fb): 32.1%
[1]; oral 12 mg/kg
  observed Cmax: 4300 ng/mL
[1]; oral 12 mg/kg, read-out: observed Cmax
  Cmax: 14.3 µM
MAO-B
  inhibition of MAO-B: 35.8%
[2]
  percentage recovery of an IV dose as unchanged in the urine: 53.7% and 64%
In vitro
  fraction unbound at 5 h, 5 µM: 0.985

From article PMC10489644, “In Vitro Evaluation of the Potential for Drug Interactions by Salidroside” (Nutrients, 2023)
